This passage reports inhibition results from patent US8492559B2, “Substituted indole compounds” (Gruenenthal GmbH, priority 2009, dated 2013).

This experiment addresses T1, B1R receptor of the rat (rB1R) (Rattus norvegicus, UniProt P97583).
T1 construct: expressed in transfected cells; host or cells: CHO K1 cells
T1 sequence (P97583 1-337): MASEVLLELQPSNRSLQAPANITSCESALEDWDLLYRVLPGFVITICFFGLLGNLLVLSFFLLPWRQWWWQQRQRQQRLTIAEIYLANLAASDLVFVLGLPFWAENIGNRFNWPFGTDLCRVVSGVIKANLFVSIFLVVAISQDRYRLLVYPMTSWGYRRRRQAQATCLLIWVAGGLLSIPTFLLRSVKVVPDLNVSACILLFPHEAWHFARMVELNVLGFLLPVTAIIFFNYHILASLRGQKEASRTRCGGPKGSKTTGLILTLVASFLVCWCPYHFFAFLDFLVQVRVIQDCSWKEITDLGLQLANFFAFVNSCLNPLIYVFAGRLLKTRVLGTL
Nature of the experiment: Functional investigation on the bradykinin 1 receptor (B1R), FLIPR Ca2+ assay, rB1R cells. Type of experiment: cell-based. Particulars: CHO-K1, 10 μM test substance; CHO K1 cells with rat B1R; agonist Des-Arg9 bradykinin; % of maximum achievable inhibition; read-out: B1R antagonism, rat [10 μM] % inhibition. The protocol:
The indication in % activation is based on the Ca^2+ signal after addition of Lys-Des-[…] bradykinin (0.5 nM) or Des-[…] bradykinin (100 nM). Antagonists lead to a suppression of the Ca^2+ influx following administration of the agonist. The % inhibition in comparison with the maximum achievable inhibition is indicated. […] According to this assay, the Ca^2+ inflow through the channel is quantified with the aid of a Ca^2+-sensitive dye (Fluo-4 type, Molecular Probes Europe BV, Leiden, Netherlands) in a fluorescent imaging plate reader (FLIPR, Molecular Devices, Sunnyvale, USA). […] For functional investigations these cells are plated-out onto black 96-well plates with a clear base (BD Biosciences, Heidelberg, Germany or Greiner, Frickenhausen, Germany) in a density of 20,000-35,000 cells/well. Overnight the cells are incubated at 37° C. and 5% CO2 in culture medium (hB1R cells: Ham's Nutrient Mixture F12, Gibco Invitrogen GmbH, Karlsruhe, Germany or DMEM, Sigma-Aldrich, Taufkirchen, Germany; rB1R cells: D-MEM/F12, Gibco Invitrogen, Karlsruhe, Germany) with 10 vol. % FBS (foetal bovine serum, Gibco Invitrogen GmbH, Karlsruhe, Germany or PAN Biotech GmbH, Aidenbach, Germany). On the following day the cells are loaded with 2.13 μM Fluo-4 (Molecular Probes Europe BV, Leiden, Netherlands) in HBSS buffer (Hank's buffered saline solution, Gibco Invitrogen GmbH, Karlsruhe, Germany) with 2.5 mM probenecid (Sigma-Aldrich, Taufkirchen, Germany) and 10 mM HEPES (Sigma-Aldrich, Taufkirchen, Germany) for 60 min at 37° C. […] Sigma-Aldrich, Taufkirchen, Germany), 5.6 mM glucose and 0.05% gelatine (Merck KGaA, Darmstadt, Germany) is added. After a further incubation of 20 minutes at room temperature, the plates are inserted into the FLIPR for Ca^2+ measurement. Alternatively they are washed with buffer A (15 mM HEPES, 80 mM NaCl, 5 mM KCl, 1.2 mM CaCl2, 0.7 mM MgSO4, 2 g/l glucose, 2.5 mM probenecid) and loaded with buffer A with added 2.5 μM Fluo-4 and 0.025% Pluronic F127 (Sigma-Aldrich, Taufkirchen, Germany). The cells are then washed twice with buffer A and incubated for 30 minutes with buffer A, which additionally contains 0.05% BSA and 0.05% gelatine, at room temperature and then used for Ca^2+ measurement in the FLIPR. The Ca^2+-dependent fluorescence is measured here before and after addition of substances (λex=488 nm, λem=540 nm). The quantification is performed by measuring the highest fluorescence intensity (FC, fluorescence counts) over time. The FLIPR protocol comprises two additions of substance. […] Lys-Des-[…] bradykinin>=50 nM; rB1R: […] Antagonists lead to a suppression of the Ca^2+ inflow. The % inhibition in comparison with the maximum achievable inhibition is calculated. The substances are added in varying concentrations in order to determine the IC50 value. Double or triple determinations (n=2 or n=3) are performed and these are repeated in at least one further independent experiment (N>=2).

Each structure is given as a SMILES string.

In the case of `Cc1cc(S(=O)(=O)Nc2cccc3ccn(CC(=O)N(C)CCCN4CCC(c5cccs5)(N(C)C)CC4)c23)c(C)cc1Cl` [G_CC-26, 2-[7-[[(4-Chloro-2,5-dimethyl-phenyl)sulfonyl]amino]-1H-indol-1-yl]-N-[3-(4-dimethylamino-4-thiophen-2-yl-piperidin-1-yl)-propyl]-N-methyl-acetamide], the inhibition at 10 µM was found to be 81%.
The result for `COc1cc(C)c(S(=O)(=O)Nc2cccc3ccn(CC(=O)N4CCN(c5ccc(F)cc5)CC4)c23)c(C)c1` [G_CC-5, N-[1-[2-[4-(4-fluorophenyl)-piperazin-1-yl]-2-oxo-ethyl]-1H-indol-7-yl]-4-methoxy-2,6-dimethyl-benzenesulfonic acid amide] reads 59%; that for `Cc1cc(S(=O)(=O)Nc2ccc3ccn(CC(=O)N(C)CCCN4CCC(c5ccccc5)(N(C)C)CC4)c3c2)c(C)cc1Cl` [G_CC-15, 2-[6-[[(4-Chloro-2,5-dimethyl-phenyl)sulfonyl]amino]-1H-indol-1-yl]-N-[3-(4-dimethylamino-4-phenyl-piperidin-1-yl)-propyl]-N-methyl-acetamide], 65%; that for `O=C(CCn1ccc2cccc(N3Cc4cccc(Cl)c4C3=O)c21)NCC1CCN(c2ccncc2)CC1` [G_CC-123, 3-[7-(4-Chloro-3-oxo-1,2-dihydro-isoindol-2-yl)-1H-indol-1-yl]-N-[(1-pyridin-4-yl-piperidin-4-yl)-methyl]-propionamide], 67%.
For the compound `CN1CCC(CN2CCN(C(=O)CCn3ccc4ccc(N5Cc6cccc(Cl)c6C5=O)cc43)CC2)CC1` [G_CC-64, 7-Chloro-2-[1-[3-[4-[(1-methyl-piperidin-4-yl)-methyl]-piperazin-1-yl]-3-oxo-propyl]-1H-indol-6-yl]-2,3-dihydro-isoindol-1-one], the inhibition at 10 µM is 89%.
Then `COc1cc(C)c(S(=O)(=O)Nc2ccc3ccn(CC(=O)N(C)CCCN4CCC(c5ccccc5)(N(C)C)CC4)c3c2)c(C)c1` [G_CC-11, N-[3-(4-Dimethylamino-4-phenyl-piperidin-1-yl)-propyl]-2-[6-[[(4-methoxy-2,6-dimethyl-phenyl)sulfonyl]amino]-1H-indol-1-yl]-N-methyl-acetamide], with 87%.
On to `COc1cc(C)c(S(=O)(=O)Nc2ccc3ccn(CC(=O)N(C)CCN4CCC(c5cccc(F)c5)(N5CCN(C)CC5)CC4)c3c2)c(C)c1` [G_CC-99, N-[2-[4-(3-Fluorophenyl)-4-(4-methyl-piperazin-1-yl)-piperidin-1-yl]-ethyl]-2-[6-[[(4-methoxy-2,6-dimethyl-phenyl)sulfonyl]amino]-1H-indol-1-yl]-N-methyl-acetamide], for which the inhibition at 10 µM turned out to be 93%.
`CN1CCN(C2(c3cccc(F)c3)CCN(CCN(C)C(=O)Cn3ccc4ccc(N5Cc6cccc(Cl)c6C5=O)cc43)CC2)CC1` [G_CC-113, 2-[6-(4-Chloro-3-oxo-1,2-dihydro-isoindol-2-yl)-1H-indol-1-yl]-N-[2-[4-(3-fluorophenyl)-4-(4-methyl-piperazin-1-yl)-piperidin-1-yl]-ethyl]-N-methyl-acetamide]: the inhibition at 10 µM worked out at 78%.
On to `COc1cc(C)c(S(=O)(=O)Nc2cccc3ccn(CC(=O)NCCC4CCN(c5ccncc5)CC4)c23)c(C)c1` [G_CC-21, 2-[7-[[(4-Methoxy-2,6-dimethyl-phenyl)sulfonyl]amino]-1H-indol-1-yl]-N-[2-(1-pyridin-4-yl-piperidin-4-yl)-ethyl]-acetamide], for which the inhibition at 10 µM worked out at 97%.
Turning to `COc1cc(C)c(S(=O)(=O)Nc2ccc3ccn(CC(=O)N4CCC(OCCN5CCCC5)(c5cccnc5)CC4)c3c2)c(C)c1` [G_CC-57, 4-Methoxy-2,6-dimethyl-N-[1-[2-oxo-2-[4-pyridin-3-yl-4-(2-pyrrolidin-1-yl-ethoxy)-piperidin-1-yl]-ethyl]-1H-indol-6-yl]-benzenesulfonic acid amide], the inhibition at 10 µM was found to be 100%.
As for `Cc1cc(S(=O)(=O)Nc2cccc3ccn(CCC(=O)N4CCC(CCN5CCCC5)CC4)c23)c(C)cc1Cl` [G_CC-60, 4-Chloro-2,5-dimethyl-N-[1-[3-oxo-3-[4-(2-pyrrolidin-1-yl-ethyl)-piperidin-1-yl]-propyl]-1H-indol-7-yl]-benzenesulfonic acid amide], the inhibition at 10 µM is 87%.
On to `COc1cc(C)c(S(=O)(=O)Nc2cccc3ccn(CC(=O)N4CCC(c5cccc(F)c5)(N5CCN(C)CC5)CC4)c23)c(C)c1` [G_CC-84, N-[1-[2-[4-(3-Fluorophenyl)-4-(4-methyl-piperazin-1-yl)-piperidin-1-yl]-2-oxo-ethyl]-1H-indol-7-yl]-4-methoxy-2,6-dimethyl-benzenesulfonic acid amide], for which the inhibition at 10 µM is 102%.
With `COc1cc(C)c(S(=O)(=O)Nc2cccc3ccn(CC(=O)N4CC5CC4CN5Cc4ccncc4)c23)c(C)c1` (centres unmarked) [G_CC-34, 4-Methoxy-2,6-dimethyl-N-[1-[2-oxo-2-[2-(pyridin-4-yl-methyl)-2,5-diazabicyclo[2.2.1]heptan-5-yl]-ethyl]-1H-indol-7-yl]-benzenesulfonic acid amide], the inhibition at 10 µM was found to be 58%.
Consider `COc1cc(C)c(S(=O)(=O)Nc2cccc3ccn(CCC(=O)N4CCN(CCCN(C)C)CC4)c23)c(C)c1` [G_CC-44, N-[1-[3-[4-(3-Dimethylamino-propyl)-piperazin-1-yl]-3-oxo-propyl]-1H-indol-7-yl]-4-methoxy-2,6-dimethyl-benzenesulfonic acid amide], for which the inhibition at 10 µM is 73%.
As for `COc1cc(C)c(S(=O)(=O)Nc2ccc3ccn(CC(=O)NCC4CCN(c5ccncc5)CC4)c3c2)c(C)c1` [G_CC-9, 2-[6-[[(4-Methoxy-2,6-dimethyl-phenyl)sulfonyl]amino]-1H-indol-1-yl]-N-[(1-pyridin-4-yl-piperidin-4-yl)-methyl]-acetamide], the inhibition at 10 µM was 65%.
In the case of `Cc1cc(S(=O)(=O)Nc2cccc3ccn(CCC(=O)NCCC4CCN(c5ccncc5)CC4)c23)c(C)cc1Cl` [G_CC-70, 3-[7-[[(4-Chloro-2,5-dimethyl-phenyl)sulfonyl]amino]-1H-indol-1-yl]-N-[2-(1-pyridin-4-yl-piperidin-4-yl)-ethyl]-propionamide], the inhibition at 10 µM stood at 100%.
As to `Cc1cc(S(=O)(=O)Nc2cccc3ccn(CC(=O)NCCC4CCN(c5ccncc5)CC4)c23)c(C)cc1Cl` [G_CC-28, 2-[7-[[(4-Chloro-2,5-dimethyl-phenyl)sulfonyl]amino]-1H-indol-1-yl]-N-[2-(1-pyridin-4-yl-piperidin-4-yl)-ethyl]-acetamide], the inhibition at 10 µM came out at 82%.
Regarding `COc1cc(C)c(S(=O)(=O)Nc2ccc3ccn(CC(=O)N4CCC(CCN5CCCC5)CC4)c3c2)c(C)c1` [G_CC-120, 4-Methoxy-2,6-dimethyl-N-[1-[2-oxo-2-[4-(2-pyrrolidin-1-yl-ethyl)-piperidin-1-yl]-ethyl]-1H-indol-6-yl]-benzenesulfonic acid amide], the inhibition at 10 µM was 72%.
Consider `Cc1cc(S(=O)(=O)Nc2cccc3ccn(CCC(=O)N4CCC(N5CCN(C)CC5)CC4)c23)c(C)cc1Cl` [G_CC-61, 4-Chloro-2,5-dimethyl-N-[1-[3-[4-(4-methyl-piperazin-1-yl)-piperidin-1-yl]-3-oxo-propyl]-1H-indol-7-yl]-benzenesulfonic acid amide], for which the inhibition at 10 µM is 79%.
As for `Cc1cc(S(=O)(=O)Nc2ccc3ccn(CCC(=O)NCCC4CCN(c5ccncc5)CC4)c3c2)c(C)cc1Cl` [G_CC-71, 3-[6-[[(4-Chloro-2,5-dimethyl-phenyl)sulfonyl]amino]-1H-indol-1-yl]-N-[2-(1-pyridin-4-yl-piperidin-4-yl)-ethyl]-propionamide], the inhibition at 10 µM is 54%.
